The record followed here is publication PMC4639919 (Neurochemical research, 2015).

As a reminder, the IC50 is the concentration that gives 50% inhibition. Low readings indicate inhibition by little substance, high ones a need for much substance.

The target in this experiment is α6β2* nicotinic acetylcholine receptor (α6 subunit) (Rattus norvegicus, UniProt P12390+P43143).
Sequence of α6β2* nicotinic acetylcholine receptor (α6 subunit) (P43143 31-493 limits assumed): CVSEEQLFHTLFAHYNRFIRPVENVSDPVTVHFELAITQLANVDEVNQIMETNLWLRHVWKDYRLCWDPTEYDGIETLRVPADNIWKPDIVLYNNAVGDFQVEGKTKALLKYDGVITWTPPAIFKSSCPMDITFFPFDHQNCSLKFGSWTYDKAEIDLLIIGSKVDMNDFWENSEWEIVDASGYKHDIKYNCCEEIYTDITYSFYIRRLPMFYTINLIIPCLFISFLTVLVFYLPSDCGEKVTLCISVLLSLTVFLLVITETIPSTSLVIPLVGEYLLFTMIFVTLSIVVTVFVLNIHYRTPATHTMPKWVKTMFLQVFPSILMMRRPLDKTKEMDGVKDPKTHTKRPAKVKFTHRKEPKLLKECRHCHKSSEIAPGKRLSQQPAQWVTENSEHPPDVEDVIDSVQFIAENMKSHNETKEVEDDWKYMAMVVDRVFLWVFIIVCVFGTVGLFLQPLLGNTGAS
Sequence of α6β2* nicotinic acetylcholine receptor (α6 subunit) (P12390 25-500 limits assumed): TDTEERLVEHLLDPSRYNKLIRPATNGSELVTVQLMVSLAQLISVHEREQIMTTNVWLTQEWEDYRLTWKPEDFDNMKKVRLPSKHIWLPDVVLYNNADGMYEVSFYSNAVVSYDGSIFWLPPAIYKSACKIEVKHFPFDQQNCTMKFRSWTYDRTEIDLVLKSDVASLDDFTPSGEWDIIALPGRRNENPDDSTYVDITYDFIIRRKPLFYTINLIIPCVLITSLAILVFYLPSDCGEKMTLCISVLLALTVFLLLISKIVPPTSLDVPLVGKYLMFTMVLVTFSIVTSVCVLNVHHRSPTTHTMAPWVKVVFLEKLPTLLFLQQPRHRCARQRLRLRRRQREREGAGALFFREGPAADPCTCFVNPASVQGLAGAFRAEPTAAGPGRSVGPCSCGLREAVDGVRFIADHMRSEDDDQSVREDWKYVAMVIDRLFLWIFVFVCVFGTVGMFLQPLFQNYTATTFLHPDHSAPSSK

Compound `CC1=CCCN(CCCCCCCCCCN2CCC=C(C)C2)C1` [r-bPiDI, 1,10-bis(3-methyl-5,6-dihydropyridin-1(2H)-yl)decane] gave an IC50 of 37.5 ± 18.7 nM.
